Reference: ChEMBL document CHEMBL6071156 (Eur J Med Chem, 2024)
Activity calls are given as the source filed them. No cut-off for these calls is given here.

Columns and labels:
[1] = Toxicity in C57BL/6 mouse model assessed as effect on CREAT level at 300 mg/kg/day, ip measured after 6 days post infection (reference value: 0.39 to 0.43); type: organism-based; settings: in vivo, 144 h, time 6 day
[2] = Volume in the terminal state in C57BL/6 mouse plasma at 2.5 mg/kg, iv measured upto 24 hrs post dosing by LC-MS/MS; type: ADME, organism-based; settings: in vivo
[3] = Toxicity in Sham-infected C57BL/6 mouse model assessed as footpad swelling at 300 mg/kg/day, ip measured after 6 days post infection (reference value: -4.6+/-5.5); type: organism-based; settings: in vivo, 144 h, time 6 day
[4] = MRT in C57BL/6 mouse plasma at 2.5 mg/kg, iv measured upto 24 hrs post dosing by LC-MS/MS; type: ADME, organism-based; settings: in vivo
CYP1A = target: T1, CYP1A (Homo sapiens, UniProt P04798+P05177); assay: Inhibition of CYP1A (unknown origin); type: ADME, protein assay
T1 sequence (P04798 whole entry): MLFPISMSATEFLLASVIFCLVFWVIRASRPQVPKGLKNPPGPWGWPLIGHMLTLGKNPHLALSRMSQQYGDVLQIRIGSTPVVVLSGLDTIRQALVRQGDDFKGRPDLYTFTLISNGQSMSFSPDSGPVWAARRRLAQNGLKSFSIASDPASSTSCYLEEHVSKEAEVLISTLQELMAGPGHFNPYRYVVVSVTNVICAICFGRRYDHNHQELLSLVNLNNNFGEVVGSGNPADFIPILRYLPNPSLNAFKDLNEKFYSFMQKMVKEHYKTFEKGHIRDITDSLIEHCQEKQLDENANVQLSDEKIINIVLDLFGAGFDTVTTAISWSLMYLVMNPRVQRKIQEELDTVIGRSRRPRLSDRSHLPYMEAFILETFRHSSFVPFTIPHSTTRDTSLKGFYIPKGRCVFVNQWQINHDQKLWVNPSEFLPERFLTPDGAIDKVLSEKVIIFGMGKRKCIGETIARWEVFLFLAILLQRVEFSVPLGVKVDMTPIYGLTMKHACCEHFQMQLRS
T1 sequence (P05177 whole entry): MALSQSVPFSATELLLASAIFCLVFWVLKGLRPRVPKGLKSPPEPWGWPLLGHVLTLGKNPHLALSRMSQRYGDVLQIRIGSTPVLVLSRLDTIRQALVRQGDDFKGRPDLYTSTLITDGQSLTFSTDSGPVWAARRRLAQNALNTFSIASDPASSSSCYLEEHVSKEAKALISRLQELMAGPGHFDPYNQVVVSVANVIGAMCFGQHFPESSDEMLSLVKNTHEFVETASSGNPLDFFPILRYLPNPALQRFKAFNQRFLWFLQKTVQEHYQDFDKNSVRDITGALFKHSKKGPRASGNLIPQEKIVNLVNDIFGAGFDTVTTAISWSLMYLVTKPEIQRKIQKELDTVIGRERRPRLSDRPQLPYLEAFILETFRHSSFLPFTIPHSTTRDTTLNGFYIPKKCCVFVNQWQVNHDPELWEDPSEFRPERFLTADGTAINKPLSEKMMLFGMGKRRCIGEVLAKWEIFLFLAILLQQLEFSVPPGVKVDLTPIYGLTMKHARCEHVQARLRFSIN

Cytochrome P450 2D6 = Cytochrome P450 2D6 (Homo sapiens, UniProt P10635); assay: Inhibition of CYP2D6 (unknown origin); type: ADME
Chikungunya virus [5] = assay: Antiviral activity against CHIKV infected in C57BL/6 mouse assessed as footpad swelling at 100 mg/kg/day, ip measured after 6 days post infection (reference value: 40.9+/-12.4); type: functional; settings: time 6 day
[6] = Volume of distribution at steady state in C57BL/6 mouse plasma at 2.5 mg/kg, iv measured upto 24 hrs post dosing by LC-MS/MS; type: ADME, organism-based; settings: in vivo
Cav1.2 = assay: Antagonist activity at hCav1.2 expressed in HEK293 cells by Electrophysiology; type: toxicity, cell-based; settings: human, HEK293 cells expressing hCav1.2
Chikungunya virus [7] = assay: Antiviral activity against CHIKV infected in C57BL/6 mouse assessed as virus titers at 300 mg/kg/day, ip measured after 6 days post infection (reference value: 5.3+/0.3); type: functional; settings: time 6 day
Cytochrome P450 3A = Cytochrome P450 3A (Homo sapiens, UniProt P08684+P20815+Q9HB55+P24462); assay: Inhibition of CYP3A in human liver microsomes using testosterone as substrate; type: ADME, Microsome
Cytochrome P450 3A4 = Cytochrome P450 3A4 (Homo sapiens, UniProt P08684); assay: Inhibition of CYP3A4 (unknown origin); type: ADME
Chikungunya virus [8] = assay: Antiviral activity against CHIKV S27 in green monkey Vero 76 cells assessed as reduction in virus-induced cytopathic effect; type: functional, organism-based; settings: S27, Vero 76
Chikungunya virus [9] = type: functional, organism-based; settings: dose 300.0 mg/kg/day, time 5-6 day
Cytochrome P450 2B6 = target: T2, Cytochrome P450 2B6 (Homo sapiens, UniProt P20813); assay: Inhibition of CYP2B6 (unknown origin); type: ADME
T2 sequence (P20813 whole entry): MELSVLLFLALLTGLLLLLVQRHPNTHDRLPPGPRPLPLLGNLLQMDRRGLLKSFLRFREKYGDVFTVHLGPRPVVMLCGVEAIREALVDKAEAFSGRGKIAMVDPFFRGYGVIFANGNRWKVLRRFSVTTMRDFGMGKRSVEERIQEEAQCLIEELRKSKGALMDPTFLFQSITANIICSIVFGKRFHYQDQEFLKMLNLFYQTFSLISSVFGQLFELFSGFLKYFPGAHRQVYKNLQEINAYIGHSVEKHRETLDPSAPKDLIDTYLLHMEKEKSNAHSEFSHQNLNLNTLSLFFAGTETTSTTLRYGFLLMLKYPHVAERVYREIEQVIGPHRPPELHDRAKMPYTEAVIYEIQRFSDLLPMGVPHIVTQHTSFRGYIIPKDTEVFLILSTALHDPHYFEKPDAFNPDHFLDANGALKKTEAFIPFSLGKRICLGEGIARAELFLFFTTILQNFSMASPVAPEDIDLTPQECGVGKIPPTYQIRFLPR

[10] = Metabolic stability in CD-1 mouse liver microsomes assessed as half life by HPLC-MS/MS analysis; type: ADME, Microsome
[11] = Tmax in C57BL/6 mouse plasma at 10 mg/kg, po measured 4 hrs post dosing by LC-MS/MS; type: ADME, organism-based; settings: in vivo
[12] = Toxicity in C57BL/6 mouse model assessed as effect on ALT level at 300 mg/kg/day, ip measured after 6 days post infection (reference value: 29 to 33); type: organism-based; settings: in vivo, 144 h, time 6 day
[13] = Metabolic stability in human liver S9 fraction assessed as half life by HPLC-MS/MS analysis; type: ADME, subcellular
Chikungunya virus [14] = assay: Antiviral activity against CHIKV S27 in green monkey Vero 76 cells assessed as reduction in virus yield measured after 3 days by Virus yield reduction assay; type: functional; settings: S27, Vero 76, 72 h, time 3 day

Chain of Cytochrome P450 3A4 (P08684 whole entry): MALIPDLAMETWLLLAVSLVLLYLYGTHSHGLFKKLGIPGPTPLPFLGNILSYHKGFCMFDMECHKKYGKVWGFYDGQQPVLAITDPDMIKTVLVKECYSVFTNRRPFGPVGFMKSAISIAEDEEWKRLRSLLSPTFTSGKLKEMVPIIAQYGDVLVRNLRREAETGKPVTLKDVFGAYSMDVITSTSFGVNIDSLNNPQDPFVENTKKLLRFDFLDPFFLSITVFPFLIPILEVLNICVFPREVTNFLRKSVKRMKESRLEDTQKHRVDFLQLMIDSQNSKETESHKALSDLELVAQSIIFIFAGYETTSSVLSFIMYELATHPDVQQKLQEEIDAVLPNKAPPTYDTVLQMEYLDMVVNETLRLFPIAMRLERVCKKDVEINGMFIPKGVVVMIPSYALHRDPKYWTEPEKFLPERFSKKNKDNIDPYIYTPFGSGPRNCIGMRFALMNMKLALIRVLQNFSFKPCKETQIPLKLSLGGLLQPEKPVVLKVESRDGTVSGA
Chain of Cytochrome P450 2D6 (P10635 whole entry): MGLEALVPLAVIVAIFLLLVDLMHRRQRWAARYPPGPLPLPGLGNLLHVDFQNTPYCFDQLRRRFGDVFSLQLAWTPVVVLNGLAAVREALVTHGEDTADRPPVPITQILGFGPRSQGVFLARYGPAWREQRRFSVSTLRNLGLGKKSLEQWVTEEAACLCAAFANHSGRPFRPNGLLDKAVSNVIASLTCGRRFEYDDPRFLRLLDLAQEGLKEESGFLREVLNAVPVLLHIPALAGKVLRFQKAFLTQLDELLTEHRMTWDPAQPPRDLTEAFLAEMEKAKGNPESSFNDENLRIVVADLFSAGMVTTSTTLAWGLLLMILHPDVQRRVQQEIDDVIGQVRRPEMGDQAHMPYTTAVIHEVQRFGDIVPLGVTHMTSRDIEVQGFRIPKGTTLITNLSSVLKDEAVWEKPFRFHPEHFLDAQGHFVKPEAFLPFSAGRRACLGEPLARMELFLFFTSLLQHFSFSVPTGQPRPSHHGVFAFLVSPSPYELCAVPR

Question: Which Activity [1] does the source give for `CC1CCNc2c(C(=O)NC/C=C/S(C)(=O)=O)cccc21` (stereo not given) here?
Answer: 0.35 mg/dL

Question: What about the Vz [2] of the same compound?
Answer: 4.5 L/kg

Question: And the Activity [3]?
Answer: -1%

Question: And the MRT [4]?
Answer: 3.6 min

Question: And the IC50 (CYP1A)?
Answer: > 100 µM

Question: What about the IC50 (Cytochrome P450 2D6) of the same compound?
Answer: > 100 µM

Question: And the Activity (Chikungunya virus [5])?
Answer: 23.7%

Question: And the Vdss [6]?
Answer: 1.9 L/kg

Question: And the IC50 (Cav1.2)?
Answer: > 100 µM

Question: And the Activity (Chikungunya virus [7])?
Answer: 5.3

Question: And the IC50 (Cytochrome P450 3A)?
Answer: < 0.03 µM

Question: What about the IC50 (Cytochrome P450 3A4) of the same compound?
Answer: > 100 µM

Question: And the EC50 (Chikungunya virus [8])?
Answer: 0.39 µM

Question: What about the Activity (Chikungunya virus [9]) of the same compound?
Answer: Active

Question: What about the IC50 (Cytochrome P450 2B6) of the same compound?
Answer: > 100 µM

Question: What about the t1/2 [10] of the same compound?
Answer: > 2 h

Question: What about the Tmax [11] of the same compound?
Answer: 4 h

Question: What about the Activity [12] of the same compound?
Answer: 28 U/L

Question: And the t1/2 [13]?
Answer: 1.73 h

Question: And the EC90 (Chikungunya virus [14])?
Answer: 1.6 µM
